# According to patent publication US9782389B2, “Fungal mycobiome as probiotics, diagnostics and therapeutics” (Cedars-Sinai Medical Center, priority 2012, dated 2017):
# “Also recorded” adds a separate entry of the source.
# Legend:
# [1] = tested on: DSS colitis; assay: DSS colitis with fluconazole in the drinking water (anti-fungal therapy); type: in vivo, mouse; details: Clec7a−/− mice; for weight loss during colitis: fluconazole 0.5 mg/ml in drinking water for 14 days starting 2 days prior to DSS, 2.5% DSS 7 days, effect from day 9 (p<0.05)
# Description: WT and Clec7a−/− mice were cohoused for three weeks prior the experiments. Alternatively, WT and Clec7a−/− littermates were used where indicated. For the induction of colitis, mice were given drinking water supplemented with 2.5% (w/v) Dextran sulphate sodium (DSS, MP Biomedicals, LLC, Aurora, Ohio) for 7 days and sacrificed at day 12. For ablation of intestinal fungi, mice were given Fluconazole (0.5 mg/ml, Sigma) in the drinking water for total of 14 days starting 2 days prior the induction of DSS colitis. In some experiments, prior and upon colitis induction, mice were supplemented every other day with four doses (1×108 yeast/mouse/dose) of Candida tropicalis or Saccharomycopsis fibuligera as shown in FIG. 19. Body weight, gross blood, and stool consistency were analyzed on a daily basis. Paraffin embedded colon tissues were sectioned and stained with H&E for pathology assessment. Assessment of the severity of colitis was measured by the disease activity index (DAI) as previously described.
# LI-LP lymphocytes were isolated as previously described with some modifications. Briefly, colons were isolated, opened longitudinally, washed of fecal contents and then cut into 1 cm pieces. Intestinal pieces were transferred into HBSS medium (Sigma), supplemented with 5% fetal bovine serum (FBS) and 2 mM EDTA, and were shaken for 15 min at 37° C. The suspensions were filtered through a mesh and the filtrate containing the mucosa and mucosa associated microflora was used further for DNA isolation. The remaining tissue was washed, cut in small pieces and subsequently incubated in digestion medium consisting of RPMI 1640, 5% FBS, 0.5 mg/ml collagenase type VIII (Sigma), 5 U/ml DNase (Roche Diagnostics), 100 IU/ml penicillin and 100 μg/ml streptomycin for 30 min at 37° C. by gentle shaking. The cell suspensions were filtered through a mesh, and then centrifuged at 1300 rpm. Cell suspensions were cultured overnight and TNF-α production by colonic cells was measured by ELISA (BioLegend, San Diego, Calif.).
# Cell suspensions were prepared from MLNs and the LI-LP as described above. Cells were incubated with 50 ng/ml phorbol 12-myristate 13-acetate (PMA; Sigma-Aldrich), 500 ng/ml ionomycin (Sigma-Aldrich) and 10 μg/ml Brefeldin A (BFA; Sigma-Aldrich) in complete RPMI media at 37° C. for 6 h. After surface staining with CD4, cells were permeabilized and intracellular cytokine staining was performed using APC-labeled anti-IFN-γ mAb (XMG1.2; BD Biosciences) and PE-labeled anti-IL-17 mAb (TC11-18H10; BD Biosciences) according to the manufacturer's instructions. Flow cytometry was performed using a LSRII (BD Biosciences) and data were analyzed with FlowJo software (TreeStar Inc.).
# For detection of cytokines by ELISA, MLN cells and LI-LP lymphocytes were stimulated with 10 μg/ml plate bound anti-CD3 and anti-CD28 antibodies (BioLegend, San Diego, Calif.). Supernatants were collected after 36 hrs and analyzed for IFN-γ and IL-17 production by ELISA (BioLegend, San Diego, Calif.).
# Tissue samples from the proximal and distal colon were isolated and homogenized. RNA was isolated by using RNeasy Mini Kit (Qiagen) and reverse transcribed. Real-time RT-PCR analyses were done on the Applied Biosystems 7500 Fast Real-Time PCR System with the SYBR Green PCR kit as instructed by the manufacturer (Applied Biosystems). […] Samples were analyzed for gene expression using the following primers: […]
# [2] = tested on: intestinal fungi; assay: Depletion of intestinal fungi by fluconazole, colon sections stained with sDEC-1; type: in vivo, mouse; details: mice treated with fluconazole 0.5 mg/ml in drinking water for 2 weeks; sDEC-1 staining of colon sections
# Description: OCT-embedded intestinal specimens were sectioned, mounted on microscope slides and then incubated for 40 min in PBS containing 2% FCS. Murine soluble Dectin-1 (sDec-1) was generated and biotin-labeled as previously described. sDec-1 (10 μg/ml) was fluorescently labeled with streptavidin-Alexa 647 (2 μg/ml, Invitrogen) (sDec-1-Alexa647), and intestinal sections were stained for 1 hr. To block Dectin-1 interaction. sDec-1-Alexa647 was incubated with 1 μg/ml laminarin (soluble β-glucan from Laminaria digitata, Sigma) and intestinal sections were stained as previously described. Alternatively, intestinal sections were stained with FITC conjugated rabbit anti-Candida polyclonal antibody (Meridian Life Science, Cincinnati, Ohio). […] Therefore throughout this study we have referred to the antibody as an “anti-fungal antibody”. Slides were rinsed with PBS and stained for 5 min with 0.1 μg/ml 4′,6-diamidino-2-phenylindole (DAPI, Invitrogen) and overlaid with mounting medium (Vectashield; Vector, Burlingame, Calif.). Slides were examined using a Zeiss Axio Observer Fluorescence microscope. All compared images were collected and processed identically. Colons from Fluconazole (0.5 mg/ml for 2 weeks in the drinking water) treated mice were used in control staining.
# [3] = fluconazole in drinking water, DSS colitis
smiles,measurement,setting,value
OC(Cn1cncn1)(Cn1cncn1)c1ccc(F)cc1F [fluconazole],weight loss during colitis,[1],reduced weight loss
same,weight loss during colitis,[1]; listed as Fluconazole,significantly abrogated weight loss
same,colitis overall,[1]; fluconazole in drinking water for 14 days starting 2 days prior to DSS,ameliorates colitis
same,histological disease characteristics (histology score),"[1]; fluconazole in drinking water, 4 days after the 7 days of DSS",milder histological disease characteristics
same,"Th1 and Th17 responses (IL-17 and IFN-γ producing CD4+ T cells in LI-LP, production in MLNs)",[1]; [3],decreased Th1 and Th17 responses
same,production of inflammatory cytokines in the colon,[1]; [3],decreased production of inflammatory cytokines
same,presence of fungi in the intestine,[2],substantially reduces the presence of fungi; also recorded: suppressed fungal growth
